In US20260262643A1, “HERBICIDAL BENZOXAZINES” (FMC CORPORATION, priority 2022, published 2026):

Tests used:
corn [1] = assay: Test C preemergence; type: in vivo, Zea mays; details: 500 g ai/ha, preemergence; 0 to 100 scale (0 no effect, 100 complete control)
In short: (§1)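 Pre: seeds in loam/sand, directed soil spray. Post: 1–2 leaf plants, 2–10 cm. Cmpd in non-phytotoxic solvent + surfactant. Greenhouse 10 d; visual rating vs untreated, 0 = none, 100 = complete control.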

kochia [2] = assay: Test C postemergence; type: in vivo, Bassia scoparia; details: 10 days, 0 to 100 scale (0 no effect, 100 complete control)
In short: as §1

kochia [3] = assay: Test C preemergence; type: in vivo, Bassia scoparia
In short: as §1

foxtail, giant [4] = assay: Test C postemergence; type: in vivo, Setaria faberi; details: 10 days, 0 to 100 scale (0 no effect, 100 complete control)
In short: as §1

foxtail, giant [5] = assay: Test C preemergence; type: in vivo, Setaria faberi
In short: as §1

barnyardgrass [6] = assay: Test D flooded paddy test; type: in vivo, Echinochloa crus-galli; details: 250 g ai/ha, applied to paddy water, visual rating after 13 to 14 days, scale 0 to 100 (0 no effect, 100 complete control)
In short: (§2)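 Post-flood water application at the 2-leaf stage; 3 cm flood depth kept constant; visual control rating 0–100 after 13–14 days greenhouse growth.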

ryegrass, Italian [7] = assay: Test C postemergence; type: in vivo, Lolium multiflorum; details: 10 days, 0 to 100 scale (0 no effect, 100 complete control)
In short: as §1

ragweed [8] = assay: Test C postemergence; type: in vivo, Ambrosia artemisiifolia; details: 10 days, 0 to 100 scale (0 no effect, 100 complete control)
In short: as §1

barnyardgrass [9] = assay: Test C postemergence; type: in vivo, Echinochloa crusgalli; details: 10 days, 0 to 100 scale (0 no effect, 100 complete control)
In short: as §1

rice = assay: Test D flooded paddy test; type: in vivo, Oryza sativa; details: 250 g ai/ha, applied to paddy water, visual rating after 13 to 14 days, scale 0 to 100 (0 no effect, 100 complete control)
In short: as §2

ragweed [10] = assay: Test C preemergence; type: in vivo, Ambrosia artemisiifolia
In short: as §1

soybean [11] = assay: Test C preemergence; type: in vivo, Glycine max
In short: as §1

blackgrass [12] = assay: Test C preemergence; type: in vivo, Alopecurus myosuroides
In short: as §1

blackgrass [13] = assay: Test C postemergence; type: in vivo, Alopecurus myosuroides; details: 10 days, 0 to 100 scale (0 no effect, 100 complete control)
In short: as §1

pigweed, palmer [14] = assay: Test C preemergence; type: in vivo, Amaranthus palmeri
In short: as §1

ducksalad = assay: Test D flooded paddy test; type: in vivo, Heteranthera limosa; details: 250 g ai/ha, applied to paddy water, visual rating after 13 to 14 days, scale 0 to 100 (0 no effect, 100 complete control)
In short: as §2

wheat [15] = assay: Test C postemergence; type: in vivo, Triticum aestivum; details: 10 days, 0 to 100 scale (0 no effect, 100 complete control)
In short: as §1

horseweed = assay: Test C postemergence; type: in vivo, Erigeron canadensis; details: 10 days, 0 to 100 scale (0 no effect, 100 complete control)
In short: as §1

ryegrass, Italian [16] = assay: Test C preemergence; type: in vivo, Lolium multiflorum
In short: as §1

pigweed, palmer [17] = assay: Test C postemergence; type: in vivo, Amaranthus palmeri; details: 10 days, 0 to 100 scale (0 no effect, 100 complete control)
In short: as §1

oat, wild [18] = assay: Test C postemergence; type: in vivo, Avena fatua; details: 10 days, 0 to 100 scale (0 no effect, 100 complete control)
In short: as §1

soybean [19] = assay: Test C postemergence; type: in vivo, Glycine max; details: 10 days, 0 to 100 scale (0 no effect, 100 complete control)
In short: as §1

sedge, umbrella = assay: Test D flooded paddy test; type: in vivo, Cyperus difformis; details: 250 g ai/ha, applied to paddy water, visual rating after 13 to 14 days, scale 0 to 100 (0 no effect, 100 complete control)
In short: as §2

corn [20] = assay: Test C postemergence; type: in vivo, Zea mays; details: 10 days, 0 to 100 scale (0 no effect, 100 complete control)
In short: as §1

oat, wild [21] = assay: Test C preemergence; type: in vivo, Avena fatua
In short: as §1

galium = assay: Test C postemergence; type: in vivo, Galium aparine; details: 10 days, 0 to 100 scale (0 no effect, 100 complete control)
In short: as §1

wheat [22] = assay: Test C preemergence; type: in vivo, Triticum aestivum
In short: as §1

barnyardgrass [23] = assay: Test C preemergence; type: in vivo, Echinochloa crusgalli
In short: as §1

[24] = 500 g ai/ha, preemergence, 0 to 100 scale (0 no effect, 100 complete control)
[25] = Preemergence, 125 g ai/ha, 0 to 100 scale, 0 no effect, 100 complete control

Cc1ncn(-c2cccc(C(=O)N3C[C@H](C)Oc4c(Cl)cccc43)c2)n1 [Compound 326]
Corn plant response rating (corn [1]): 40 | Plant response rating, Kochia (kochia [2]; 500 g ai/ha, postemergence): 80 | Plant response rating, Kochia (kochia [2]; Postemergence, 125 g ai/ha): 80 | Kochia plant response rating (kochia [3]; [24]): 90 | Plant response rating, Kochia (kochia [3]; [25]): 80 | Plant response rating, Foxtail, Giant (foxtail, giant [4]; 500 g ai/ha, postemergence): 90 | Plant response rating, Foxtail, Giant (foxtail, giant [4]; Postemergence, 125 g ai/ha): 70 | Foxtail, Giant plant response rating (foxtail, giant [5]; [24]): 100 | Plant response rating, Foxtail, Giant (foxtail, giant [5]; [25]): 100 | Plant response rating, Barnyardgrass (Flood) (barnyardgrass [6]): 15 | Plant response rating, Ryegrass, Italian (ryegrass, Italian [7]; 500 g ai/ha, postemergence): 80 | Plant response rating, Ryegrass, Italian (ryegrass, Italian [7]; Postemergence, 125 g ai/ha): 40 | Plant response rating, Ragweed (ragweed [8]; 500 g ai/ha, postemergence): 60 | Plant response rating, Ragweed (ragweed [8]; Postemergence, 125 g ai/ha): 10 | Plant response rating, Barnyardgrass (barnyardgrass [9]; 500 g ai/ha, postemergence): 80 | Plant response rating, Barnyardgrass (barnyardgrass [9]; Postemergence, 125 g ai/ha): 30 | Plant response rating, Rice (Flood) (rice): 0 | Ragweed plant response rating (ragweed [10]; [24]): 0 | Plant response rating, Ragweed (ragweed [10]; [25]): 0 | Soybean plant response rating (soybean [11]; [24]): 80 | Plant response rating, Soybean (soybean [11]; [25]): 70 | Blackgrass plant response rating (blackgrass [12]; [24]): 90 | Plant response rating, Blackgrass (blackgrass [12]; [25]): 80 | Plant response rating, Blackgrass (blackgrass [13]; 500 g ai/ha, postemergence): 80 | Plant response rating, Blackgrass (blackgrass [13]; Postemergence, 125 g ai/ha): 80 | Pigweed, Palmer plant response rating (pigweed, palmer [14]; [24]): 100 | Plant response rating, Pigweed, Palmer (pigweed, palmer [14]; [25]): 60 | Plant response rating, Ducksalad (Flood) (ducksalad): 80 | Plant response rating, Wheat (wheat [15]; 500 g ai/ha, postemergence): 40 | Plant response rating, Wheat (wheat [15]; Postemergence, 125 g ai/ha): 20 | Plant response rating, Horseweed (horseweed; 500 g ai/ha, postemergence): 50 | Plant response rating, Horseweed (horseweed; Postemergence, 125 g ai/ha): 0 | Ryegrass, Italian plant response rating (ryegrass, Italian [16]; [24]): 100 | Plant response rating, Ryegrass, Italian (ryegrass, Italian [16]; [25]): 90 | Plant response rating, Pigweed, Palmer (pigweed, palmer [17]; 500 g ai/ha, postemergence): 60 | Plant response rating, Pigweed, Palmer (pigweed, palmer [17]; Postemergence, 125 g ai/ha): 20 | Plant response rating, Oat, Wild (oat, wild [18]; 500 g ai/ha, postemergence): 50 | Plant response rating, Oat, Wild (oat, wild [18]; Postemergence, 125 g ai/ha): 20 | Plant response rating, Soybean (soybean [19]; 500 g ai/ha, postemergence): 100 | Plant response rating, Soybean (soybean [19]; Postemergence, 125 g ai/ha): 100 | Plant response rating, Sedge, Umbrella (Flood) (sedge, umbrella): 95 | Plant response rating, Corn (corn [20]; 500 g ai/ha, postemergence): 80 | Plant response rating, Corn (corn [20]; Postemergence, 125 g ai/ha): 10 | Oat, Wild plant response rating (oat, wild [21]; [24]): 80 | Plant response rating, Oat, Wild (oat, wild [21]; [25]): 30 | Plant response rating, Galium (galium; 500 g ai/ha, postemergence): 100 | Plant response rating, Galium (galium; Postemergence, 125 g ai/ha): 100 | Wheat plant response rating (wheat [22]; [24]): 80 | Plant response rating, Wheat (wheat [22]; [25]): 20 | Barnyardgrass plant response rating (barnyardgrass [23]; [24]): 90 | Plant response rating, Barnyardgrass (barnyardgrass [23]; [25]): 60
